Data from ChEMBL document CHEMBL1156479, “Reversine increases the plasticity of lineage-committed mammalian cells” (Proc Natl Acad Sci U S A, 2007).

Tests used:
[1] = Inhibition of ATPase activity of myosin 2 in mouse C2C12 myoblast assessed as release of inorganic phosphates
C2C12 = experiment: Inhibition of myotube formation in mouse C2C12 myoblasts at 20 nM; conditions: C2C12, read-out: INH
[2] = biological target: Dual specificity mitogen-activated protein kinase kinase 1 (Mus musculus, UniProt P31938); experiment: Inhibition of MEK1 in mouse C2C12 by ERK2 phosphorylation assay
Dual specificity mitogen-activated protein kinase kinase 1, sequence (P31938 whole entry): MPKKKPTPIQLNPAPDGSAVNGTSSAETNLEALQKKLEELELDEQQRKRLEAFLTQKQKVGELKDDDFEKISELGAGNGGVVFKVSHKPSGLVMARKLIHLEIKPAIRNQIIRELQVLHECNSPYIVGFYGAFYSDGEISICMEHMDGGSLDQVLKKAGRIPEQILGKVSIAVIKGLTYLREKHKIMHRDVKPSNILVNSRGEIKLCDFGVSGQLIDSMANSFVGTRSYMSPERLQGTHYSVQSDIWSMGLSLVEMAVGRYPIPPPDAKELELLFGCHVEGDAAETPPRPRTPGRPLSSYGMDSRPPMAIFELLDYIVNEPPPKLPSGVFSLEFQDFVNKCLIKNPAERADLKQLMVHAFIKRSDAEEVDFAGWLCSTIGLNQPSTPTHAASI

## c1nc2c(NC3CCCCC3)nc(Nc3ccc(N4CCOCC4)cc3)nc2[nH]1 [REVERSINE]
[1]
  IC50: 10 nM
C2C12
  inhibition at 0.02 µM: > 60%
[2]
  IC50: 8 nM
